Reference: PubChem BioAssay AID330 (DTP/NCI, 2004)
“And” between values parts separate entries of the source, which are not always exact repeats. Equal entries are not always repeated. Toxic doses and inconclusive results are not listed. Square brackets hold non-standard residues; d marks the D form. Peptide text beside a SMILES is read from it. * marks the point of attachment. ξ: configuration not given here. Cbz = O=C(OCc1ccccc1)*; ξT = CC(O)C(N)C(=O)O

Test system: P388 leukemia ip, CD2F1 mice, survival T/C
Assay: NCI In Vivo Anticancer Drug Screen. Data for tumor model P388 Leukemia (intraperitoneal) in CD2F1 (CDF1) mice
Conditions: endpoint: median survival time, higher = longer survival
How it was run: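 Mice carrying the transplanted tumor received test compound or vehicle. Survival was recorded in each group, and the value is the treated-group measurement divided by that of the vehicle-treated control group.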

[1] = dose: 12.5 mg/kg/injection, schedule: Q01DX005 (ip), vehicle: saline
[2] = dose: 25.0 mg/kg/injection, schedule: Q01DX005 (ip), vehicle: saline
[3] = dose: 50.0 mg/kg/injection, schedule: Q01DX005 (ip), vehicle: saline
[4] = dose: 50.0 mg/kg/injection, schedule: Q01DX005 (ip), vehicle: Klucel (hydroxypropylcellulose) (HPC)
[5] = dose: 100.0 mg/kg/injection, schedule: Q01DX005 (ip), vehicle: Klucel (hydroxypropylcellulose) (HPC)
[6] = dose: 200.0 mg/kg/injection, schedule: Q01DX005 (ip), vehicle: Klucel (hydroxypropylcellulose) (HPC)
[7] = dose: 50.0 mg/kg/injection, schedule: Q01DX005 (ip), vehicle: saline with Tween-80
[8] = dose: 100.0 mg/kg/injection, schedule: Q01DX005 (ip), vehicle: saline with Tween-80
[9] = dose: 200.0 mg/kg/injection, schedule: Q01DX005 (ip), vehicle: saline
[10] = dose: 50.0 mg/kg/injection, schedule: Q01DX009 (ip), vehicle: Klucel (hydroxypropylcellulose) (HPC)
[11] = dose: 100.0 mg/kg/injection, schedule: Q01DX009 (ip), vehicle: Klucel (hydroxypropylcellulose) (HPC)
[12] = dose: 200.0 mg/kg/injection, schedule: Q01DX009 (ip), vehicle: Klucel (hydroxypropylcellulose) (HPC)
[13] = dose: 25.0 mg/kg/injection, schedule: Q01DX009 (ip), vehicle: Klucel (hydroxypropylcellulose) (HPC)

COc1ccc(CC2=NCCc3cc(OC)c(OC)cc32)cc1OC
T/C (dose: 22.0 mg/kg/injection, schedule: Q01DX009 (ip), vehicle: saline): 104 % of control | T/C (dose: 33.0 mg/kg/injection, schedule: Q01DX009 (ip), vehicle: saline): 103 % of control | T/C (dose: 50.0 mg/kg/injection, schedule: Q01DX009 (ip), vehicle: saline): 103 % of control | T/C (dose: 75.0 mg/kg/injection, schedule: Q01DX009 (ip), vehicle: saline): 102 % of control

c1cc2nc(-c3ccc4nc(C5=NCCN5)[nH]c4c3)[nH]c2cc1C1=NCCN1
T/C [1]: 90 % of control | T/C [2]: 87 % of control and 90 % of control | T/C [3]: 99 % of control and 91 % of control and 97 % of control

CCCCNC(=O)C1C2C=CC(O2)C1C(=O)O (centres undefined)
T/C [4]: 100 % of control | T/C [5]: 93 % of control | T/C [6]: 89 % of control

O=C(O)c1ccccc1Nc1cccc([N+](=O)[O-])c1
T/C (dose: 25.0 mg/kg/injection, schedule: Q04DX003 (ip), vehicle: saline): 99 % of control | T/C (dose: 50.0 mg/kg/injection, schedule: Q04DX003 (ip), vehicle: saline): 114 % of control | T/C (dose: 100.0 mg/kg/injection, schedule: Q04DX003 (ip), vehicle: saline): 114 % of control | T/C (dose: 200.0 mg/kg/injection, schedule: Q04DX003 (ip), vehicle: saline): 112 % of control

OC(C[n+]1ccccc1)c1ccc2c(c1)OCO2 (centres undefined)
T/C [7]: 106 % of control | T/C [8]: 97 % of control

COC(=O)/C=C/c1cccc[n+]1[O-]
T/C (dose: 25.0 mg/kg/injection, schedule: Q01DX005 (ip), vehicle: water): 107 % of control | T/C (dose: 50.0 mg/kg/injection, schedule: Q01DX005 (ip), vehicle: water): 107 % of control | T/C (dose: 100.0 mg/kg/injection, schedule: Q01DX005 (ip), vehicle: water): 109 % of control | T/C (dose: 200.0 mg/kg/injection, schedule: Q01DX005 (ip), vehicle: water): 107 % of control

CC(=O)CC(C)=O.CC(=O)CC(C)=O.[Cl][Sn][c]1ccccc1
T/C [2]: 109 % of control and 116 % of control | T/C [3]: 110 % of control and 122 % of control | T/C (dose: 100.0 mg/kg/injection, schedule: Q01DX005 (ip), vehicle: saline): 109 % of control and 115 % of control | T/C [9]: 107 % of control and 111 % of control and 113 % of control

CN(C)C1CC(C)(O)Cc2cc3c(c(O)c21)C(=O)c1c(O)cc2c(c1C3=O)OC1OC2(C)C(O)C(N(C)C)C1O (centres undefined)
T/C (dose: 3.12 mg/kg/injection, schedule: Q01DX009 (ip), vehicle: other): 103 % of control | T/C (dose: 6.25 mg/kg/injection, schedule: Q01DX009 (ip), vehicle: other): 120 % of control | T/C (dose: 50.0 mg/kg/injection, schedule: Q01DX009 (ip), vehicle: other): 153 % of control

ClC(Cl)(Cl)c1nc2nccnc2[nH]1
T/C (dose: 6.25 mg/kg/injection, schedule: Q01DX009 (ip), vehicle: saline with Tween-80): 88 % of control | T/C (dose: 12.5 mg/kg/injection, schedule: Q01DX009 (ip), vehicle: saline with Tween-80): 100 % of control | T/C (dose: 25.0 mg/kg/injection, schedule: Q01DX009 (ip), vehicle: saline with Tween-80): 107 % of control and 90 % of control

O=C(c1ccc2c(c1)OCO2)N1OC2C=CC1CC2 (centres undefined)
T/C (dose: 50.0 mg/kg/injection, schedule: Q01DX009 (ip), vehicle: saline with Tween-80): 98 % of control | T/C (dose: 100.0 mg/kg/injection, schedule: Q01DX009 (ip), vehicle: saline with Tween-80): 96 % of control | T/C (dose: 200.0 mg/kg/injection, schedule: Q01DX009 (ip), vehicle: saline with Tween-80): 98 % of control

Clc1ccc(-c2csc(NCC3CCCO3)n2)cc1 (centres undefined)
T/C [10]: 100 % of control | T/C [11]: 108 % of control | T/C [12]: 100 % of control

CN1C(=O)/C(=C2\SC(=O)N(CNc3ccc(Br)cc3)C2=O)c2ccccc21
T/C (dose: 60.0 mg/kg/injection, schedule: Q01DX005 (ip), vehicle: Klucel + Tween-80): 88 % of control | T/C (dose: 240.0 mg/kg/injection, schedule: Q01DX005 (ip), vehicle: Klucel + Tween-80): 89 % of control

CCC(/C=C/c1ccccc1)=N\NC(=O)c1ccc(C)cc1
T/C (dose: 6.25 mg/kg/injection, schedule: Q01DX005 (ip), vehicle: saline with Tween-80): 98 % of control | T/C (dose: 12.5 mg/kg/injection, schedule: Q01DX005 (ip), vehicle: saline with Tween-80): 92 % of control | T/C (dose: 25.0 mg/kg/injection, schedule: Q01DX005 (ip), vehicle: saline with Tween-80): 89 % of control

CCOC(=O)C(C#N)C(=N)C1C(=O)OC2CCCCC21 (centres undefined)
T/C (dose: 60.0 mg/kg/injection, schedule: Q01DX005 (ip), vehicle: saline with Tween-80): 98 % of control | T/C (dose: 120.0 mg/kg/injection, schedule: Q01DX005 (ip), vehicle: saline with Tween-80): 100 % of control | T/C (dose: 240.0 mg/kg/injection, schedule: Q01DX005 (ip), vehicle: saline with Tween-80): 92 % of control

CC(=O)OC1=CC(=O)N(C(=O)c2ccc(Cl)cc2)C1
T/C [10]: 109 % of control | T/C [11]: 115 % of control | T/C [12]: 115 % of control

COc1ccc(C[C@H]2c3c(cc4c(c3OC)OCO4)CCN2C)c(CO)c1OC
T/C (dose: 9.38 mg/kg/injection, schedule: Q01DX005 (ip), vehicle: Klucel (hydroxypropylcellulose) (HPC)): 100 % of control | T/C (dose: 18.75 mg/kg/injection, schedule: Q01DX005 (ip), vehicle: Klucel (hydroxypropylcellulose) (HPC)): 98 % of control | T/C (dose: 37.5 mg/kg/injection, schedule: Q01DX005 (ip), vehicle: Klucel (hydroxypropylcellulose) (HPC)): 94 % of control | T/C (dose: 75.0 mg/kg/injection, schedule: Q01DX005 (ip), vehicle: Klucel (hydroxypropylcellulose) (HPC)): 99 % of control

S=c1[nH]c2ccccc2c2ccccc12
T/C [13]: 100 % of control | T/C [10]: 100 % of control | T/C [11]: 88 % of control | T/C [12]: 92 % of control

[O-]c1nn(C2OC(CO)C(O)C2O)c2cccc[n+]12 (centres undefined)
T/C (dose: 100.0 mg/kg/injection, schedule: Q01DX001 (ip), vehicle: saline): 110 % of control | T/C (dose: 200.0 mg/kg/injection, schedule: Q01DX001 (ip), vehicle: saline): 108 % of control | T/C (dose: 400.0 mg/kg/injection, schedule: Q01DX001 (ip), vehicle: saline): 95 % of control

CCOC(=O)N1C(C)CCCC1C (centres undefined)
T/C (dose: 60.0 mg/kg/injection, schedule: Q01DX005 (ip), vehicle: saline): 106 % of control | T/C (dose: 120.0 mg/kg/injection, schedule: Q01DX005 (ip), vehicle: saline): 105 % of control | T/C (dose: 240.0 mg/kg/injection, schedule: Q01DX005 (ip), vehicle: saline): 95 % of control

c1cc2c(cn1)Sc1cnccc1N2
T/C (dose: 6.25 mg/kg/injection, schedule: Q01DX009 (ip), vehicle: distilled water + Tween-80): 90 % of control | T/C (dose: 25.0 mg/kg/injection, schedule: Q01DX009 (ip), vehicle: distilled water + Tween-80): 107 % of control

C=CC(COC(=O)C(C)(C)OC(C)=O)c1ccc(OC(=O)C(C)C)c(OC)c1 (centres undefined)
T/C (dose: 12.5 mg/kg/injection, schedule: Q01DX009 (ip), vehicle: Klucel (hydroxypropylcellulose) (HPC)): 94 % of control | T/C [10]: 100 % of control | T/C [11]: 102 % of control

Cn1c(CN(CCN(Cc2nc3ccccc3n2C)Cc2nc3ccccc3n2C)Cc2nc3ccccc3n2C)nc2ccccc21
T/C [7]: 100 % of control | T/C [8]: 96 % of control | T/C (dose: 200.0 mg/kg/injection, schedule: Q01DX005 (ip), vehicle: saline with Tween-80): 101 % of control

Cc1cc2c(c(C(C)(C)C)c1)OC(=O)/C2=C1/C(=O)Oc2c1cc(C)cc2C(C)(C)C
T/C (dose: 1.87 mg/kg/injection, schedule: Q01DX005 (ip), vehicle: Klucel (hydroxypropylcellulose) (HPC)): 112 % of control | T/C (dose: 3.75 mg/kg/injection, schedule: Q01DX005 (ip), vehicle: Klucel (hydroxypropylcellulose) (HPC)): 101 % of control | T/C (dose: 7.5 mg/kg/injection, schedule: Q01DX005 (ip), vehicle: Klucel (hydroxypropylcellulose) (HPC)): 94 % of control | T/C (dose: 60.0 mg/kg/injection, schedule: Q01DX005 (ip), vehicle: Klucel (hydroxypropylcellulose) (HPC)): 90 % of control

O=C1CCC(NCCc2ccccc2)C(=O)O1 (centres undefined)
T/C [10]: 98 % of control | T/C [11]: 92 % of control | T/C [12]: 103 % of control

CC(O)C(NC(=O)CNC(=O)CNC(=O)OCc1ccccc1)C(=O)O (stereo not drawn) (Cbz-Gly-Gly-[ξT]-OH)
T/C [4]: 96 % of control | T/C [5]: 98 % of control | T/C [6]: 95 % of control

Cc1ccc2c(ccc(CC(=S)[S-])[n+]2C)c1
T/C [13]: 114 % of control | T/C [10]: 120 % of control

O=c1[nH]oc(=O)[nH]1
T/C (dose: 6.25 mg/kg/injection, schedule: Q01DX005 (ip), vehicle: saline): 95 % of control | T/C [1]: 97 % of control | T/C [2]: 94 % of control | T/C [3]: 100 % of control and 91 % of control | T/C [9]: 100 % of control

CSc1c(C(=O)O)cc(C(C)(C)C)cc1C(=O)O
T/C [10]: 91 % of control | T/C [11]: 100 % of control | T/C [12]: 91 % of control
